Measured values from US9006440B2, “Furopyridine derivatives” (Merck Patent GmbH, priority 2010, dated 2015).

Tests used:
[1] = molecular target: T1, Syk (Homo sapiens, UniProt P43405); assay: Syk enzyme assay (SYK flash plate assay / Caliper mobility shift); assay type: biochemical
T1 construct: purchased BPS Bioscience, CA, USA
Method: The kinase assay is performed either as 384-well Flashplate assay (for e.g. Topcount measurement) or as 384-well Image-Flashplate assay (for LEADseeker measurement).
2.5 nM SYK, 400 nM Biotin-Aha-Aha-KEDPDYEWPSAKK
and 10 μM ATP (spiked with 0.3 μCi 33P-ATP/well) are incubated in a total volume of 50 μl (60 mM Hepes, 10 mM MgCl2, 1.2 mM Dithiothreitol, 0.02% Brij35, 0.1% BSA, pH 7.5) with or without test compound for 1 hours at 30° C. The reaction is stopped with 25 μl 200 mM EDTA. After 30 Min at 30° C. the liquid is removed and each well washed thrice with 100 μl 0.9% sodium chloride solution. Non-specific reaction is determined in presence of 0.1 μM Staurosporine. Radioactivity is measured with Topcount (when using Flashplates) or with LEADseeker (when using Image-Flashplates) respectively. Results (e.g. IC50-values) are calculated with program tools provided by the IT-department (e.g. Symyx Assay Explorer, Genedata Screener). Enzymatic Assays Using the Caliper LifeSciences Technology
(§1) The assays described here are performed on the Caliper Life Sciences LC3000 system This technology provides data on enzyme activity via measurement of the relative amounts of phosphorylated or unphosphorylated fluorescently labelled substrate peptide at the end of an enzymatic reaction. These different states of peptide are resolved by applying a potential difference across the sample. The presence of the charged phosphate group on the product (as opposed to the substrate) causes a different peptide mobility between the two peptides. This is visualized by excitation of the fluorescent label on the substrate and product peptides and represented as peaks within the analysis software.
(§2) In order to measure inhibitor activity of kinase inhibitors on this technology, a TTP Mosquito liquid handling instrument is used to place 0.25 ul of the appropriate concentration of inhibitor in 100% DMSO (for a dose response curve calculation) into each well of a 384-well plate. To this reaction components are added to a final volume of 25 ul. The table below indicates the sequences and concentrations for the assays described in this report. Standard components are 1 mM DTT (Sigma, D0632), 1 mM MgCl2 (Sigma, M1028), 100 mM HEPES pH 7.5 (Calbiochem, 391338), 0.015% Brij-35 (Sigma, B4184).
(§3) The reaction is incubated for 90 min at 25 C, and then stopped by the addition of 70 ul of Stop buffer (100 mM HEPES pH 7.5, 0.015% Brij-35, 10 mM EDTA (Sigma, E7889)).
(§4) The plate is read on a Caliper LC 3000 in an Off-Chip mobility shift assay format, on a 12-sipper chip. Unphosphorylated substrate and phosphorylated product peptide resolve as separate peaks allowing direct measurement of percentage of conversion of substrate to product. The percent conversion can be plotted against concentration of inhibitor to produce a sigmoidal dose response curve, from which an IC50 can be calculated using GeneData Condoseo or a similar product.

[2] = molecular target: T2, KDR (Homo sapiens, UniProt P35968); assay: KDR enzymatic assay (Caliper LifeSciences technology); assay type: biochemical
T2 construct: purchased BPS Bioscience, CA, USA
Method: as §1, §2, §3, §4

T2 sequence (P35968 20-1356): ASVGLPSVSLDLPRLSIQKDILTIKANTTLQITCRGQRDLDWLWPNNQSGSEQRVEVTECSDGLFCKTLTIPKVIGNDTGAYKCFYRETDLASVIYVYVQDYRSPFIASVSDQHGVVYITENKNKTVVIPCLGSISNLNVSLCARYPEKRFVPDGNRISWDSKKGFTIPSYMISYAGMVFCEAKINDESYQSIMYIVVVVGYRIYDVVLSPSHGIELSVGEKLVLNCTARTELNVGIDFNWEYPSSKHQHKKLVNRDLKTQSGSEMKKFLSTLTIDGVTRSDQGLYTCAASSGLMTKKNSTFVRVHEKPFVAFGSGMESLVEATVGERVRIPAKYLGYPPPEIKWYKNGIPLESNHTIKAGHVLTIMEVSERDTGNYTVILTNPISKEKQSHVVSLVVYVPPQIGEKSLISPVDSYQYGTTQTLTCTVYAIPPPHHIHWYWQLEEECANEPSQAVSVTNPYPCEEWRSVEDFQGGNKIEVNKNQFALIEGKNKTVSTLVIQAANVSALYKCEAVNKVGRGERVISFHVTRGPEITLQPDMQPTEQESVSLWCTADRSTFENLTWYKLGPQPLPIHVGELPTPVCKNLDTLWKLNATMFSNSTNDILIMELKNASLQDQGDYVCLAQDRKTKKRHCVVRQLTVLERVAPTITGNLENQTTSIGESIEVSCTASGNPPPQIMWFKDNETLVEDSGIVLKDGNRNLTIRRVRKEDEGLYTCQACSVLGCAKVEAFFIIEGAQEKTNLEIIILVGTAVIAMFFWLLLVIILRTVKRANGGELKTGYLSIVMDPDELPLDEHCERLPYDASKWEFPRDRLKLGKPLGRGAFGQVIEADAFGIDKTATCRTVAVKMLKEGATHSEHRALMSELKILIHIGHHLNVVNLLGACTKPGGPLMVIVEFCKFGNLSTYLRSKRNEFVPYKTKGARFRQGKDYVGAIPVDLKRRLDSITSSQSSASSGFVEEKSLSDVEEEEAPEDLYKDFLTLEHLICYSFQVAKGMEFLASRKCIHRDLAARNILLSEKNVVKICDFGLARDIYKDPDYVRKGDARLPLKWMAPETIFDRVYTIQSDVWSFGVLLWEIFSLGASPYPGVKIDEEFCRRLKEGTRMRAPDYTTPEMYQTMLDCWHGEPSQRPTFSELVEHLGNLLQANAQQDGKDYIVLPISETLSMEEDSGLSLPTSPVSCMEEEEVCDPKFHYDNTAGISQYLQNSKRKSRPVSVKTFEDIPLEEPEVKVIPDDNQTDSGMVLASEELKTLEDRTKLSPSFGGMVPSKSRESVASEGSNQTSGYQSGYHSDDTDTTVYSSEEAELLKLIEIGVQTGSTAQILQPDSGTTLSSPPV

Compound | IC50 [1] [µM] | IC50 [2] [µM]
COc1cc(-c2cc3nccc(Nc4ccc5c(c4)NC(=O)C(F)(F)O5)c3o2)cc(OC)c1OC [Compound B10, 2,2-Difluoro-6-[2-(3,4,5-trimethoxy-phenyl)-furo[3,2-b]pyridin-7-ylamino]-4H-benzo[1,4]oxazin-3-one] | 0.3 to 3 | < 0.3
Cn1cc(-c2ccnc3cc(-c4ccc(CO)cc4)oc23)cn1 [Compound C59] | 0.3 to 3 | 0.3 to 3
CC(C)c1cccc(-c2cc3nccc(-c4cnn(C)c4)c3o2)c1 [Compound C45] | 0.3 to 3 | 3 to 50
Cn1cc(-c2ccnc3cc(-c4ccc5cnn(C)c5c4)oc23)cn1 [Compound C98] | < 0.3 | 3 to 50
COC(=O)c1cccc(-c2cc3nccc(-c4ccccc4)c3o2)c1 [Compound A19, 3-(7-Phenyl-furo[3,2-b]pyridin-2-yl)-benzoic acid methyl ester] | 3 to 50 | 3 to 50
COc1cc(-c2cc3nccc(-c4cccc(O)c4)c3o2)cc(OC)c1OC [Compound A36, 3-[2-(3,4,5-Trimethoxy-phenyl)-furo[3,2-b]pyridin-7-yl]-phenol] | < 0.3 | 3 to 50
Cn1cc(-c2ccnc3cc(-c4ccc5c(c4)OCCO5)oc23)cn1 [Compound C17] | 0.3 to 3 | 0.3 to 3
COc1cccc(-c2cc3nccc(-c4cccc(OC)c4)c3o2)c1 [Compound B43, 2,7-Bis-(3-methoxy-phenyl)-furo[3,2-b]pyridine] | 3 to 50 | 3 to 50
Cn1cc(-c2ccnc3cc(-c4ccc(N5CCOCC5)nc4)oc23)cn1 [Compound C24] | 0.3 to 3 | 0.3 to 3
COc1cc(-c2cc3nccc(C4=CCOCC4)c3o2)cc(OC)c1OC [Compound C68] | 0.3 to 3 | < 0.3
Cc1cc(-c2cc3nccc(-c4cnn(C)c4)c3o2)cc(C(C)(C)C)c1 [Compound C9] | 0.3 to 3 | –
Fc1cc(F)cc(-c2cc3nccc(-c4cc(F)cc(F)c4)c3o2)c1 [Compound B1, 2,7-Bis-(3,5-difluoro-phenyl)-furo[3,2-b]pyridine] | 3 to 50 | –
COc1cc(-c2cc3nccc(-c4cccc(OCc5ccccc5)c4)c3o2)cc(OC)c1OC [Compound A31, 7-(3-Benzyloxy-phenyl)-2-(3,4,5-trimethoxy-phenyl)-furo[3,2-b]pyridine] | 3 to 50 | –
Cc1cccc(-c2cc3nccc(-c4cccc(C)c4)c3o2)c1 [Compound B34, 2,7-Di-m-tolyl-furo[3,2-b]pyridine] | 3 to 50 | –
COc1ccc(-c2cc3nccc(-c4cnn(C)c4)c3o2)cc1 [Compound C33] | 0.3 to 3 | 0.3 to 3
CNC(=O)COc1cccc(-c2ccnc3cc(-c4cc(OC)c(OC)c(OC)c4)oc23)c1 [Compound C8] | < 0.3 | –
COc1cc(-c2cc3nccc(-c4cccc(S(C)(=O)=O)c4)c3o2)cc(OC)c1OC [Compound C110] | < 0.3 | 0.3 to 3
COc1cc(-c2cc3nccc(-c4ccc5ncccc5c4)c3o2)cc(OC)c1OC [Compound A23, 6-[2-(3,4,5-Trimethoxy-phenyl)-furo[3,2-b]pyridin-7-yl]-quinoline] | < 0.3 | –
COc1cc(-c2cc3nccc(-c4cccc(C(=O)NCc5cc[nH]n5)c4)c3o2)cc(OC)c1OC [Compound C10] | < 0.3 | –
c1ccc(-c2ccnc3cc(-c4ccc(N5CCOCC5)nc4)oc23)cc1 [Compound C25] | 0.3 to 3 | –
Cn1cc(-c2ccnc3cc(-c4ccc(OC(F)(F)F)cc4)oc23)cn1 [Compound C32] | 0.3 to 3 | –
COc1cc(-c2cc3nccc(-c4ccc5[nH]c(=O)[nH]c5c4)c3o2)cc(OC)c1OC [Compound C56] | < 0.3 | –

Compound | IC50 [1] [µM] | IC50 [2] [µM]
COc1cc(-c2cc3nccc(-c4cccnc4)c3o2)cc(OC)c1OC [Compound C13] | < 0.3 | –
COc1ccc(-c2cc3nccc(-c4ccc(OC)cc4)c3o2)cc1 [Compound B35, 2,7-Bis-(4-methoxy-phenyl)-furo[3,2-b]pyridine] | 3 to 50 | –
COc1cc(-c2cc3nccc(Nc4ccc5c(n4)NC(=O)C(C)(C)O5)c3o2)cc(OC)c1OC [Compound B29, 2,2-Dimethyl-6-[2-(3,4,5-trimethoxy-phenyl)-furo[3,2-b]pyridin-7-ylamino]-4H-pyrido[3,2-b][1,4]oxazin-3-one] | 0.3 to 3 | –
CCOC(=O)Cn1cc(-c2ccnc3cc(-c4cc(OC)c(OC)c(OC)c4)oc23)cn1 [Compound A33, {4-[2-(3,4,5-Trimethoxy-phenyl)-furo[3,2-b]pyridin-7-yl]-pyrazol-1-yl}-acetic acid ethyl ester] | < 0.3 | –
COc1cc(-c2cc3nccc(-c4ccc5[nH]c(-c6cn[nH]c6)nc5c4)c3o2)cc(OC)c1OC [Compound C90] | < 0.3 | –
COc1cc(-c2cc3nccc(-c4cnn(C)c4)c3o2)ccc1OCCNC(=O)OC(C)(C)C [Compound C62] | 0.3 to 3 | 0.3 to 3
Cn1cc(-c2ccnc3cc(-c4ccc(N5CCOCC5)cc4)oc23)cn1 [Compound C49] | 0.3 to 3 | 0.3 to 3
Cn1cc(-c2ccnc3cc(-c4ccc5cc[nH]c5c4)oc23)cn1 [Compound C19] | < 0.3 | 3 to 50
COc1cc(-c2cc3nccc(-c4cccc(C(=O)NCCN(C)C)c4)c3o2)cc(OC)c1OC [Compound A8, N-(2-Dimethylamino-ethyl)-3-[2-(3,4,5-trimethoxy-phenyl)-furo[3,2-b]pyridin-7-yl]-benzamide] | < 0.3 | –
c1cncc(-c2ccnc3cc(-c4ccc(N5CCOCC5)nc4)oc23)c1 [Compound C39] | 3 to 50 | –
COC(=O)c1cccc(-c2ccnc3cc(-c4cc(OC)c(OC)c(OC)c4)oc23)c1 [Compound A11, 3-[2-(3,4,5-Trimethoxy-phenyl)-furo[3,2-b]pyridin-7-yl]-benzoic acid methyl ester] | 0.3 to 3 | –
Cn1cc(-c2ccnc3cc(-c4ccc(C(C)(C)O)cc4)oc23)cn1 [Compound C100] | < 0.3 | –
COc1cc(-c2cc3nccc(-c4ccc5cc[nH]c5c4)c3o2)cc(OC)c1OC [Compound A27, 7-(1H-Indol-6-yl)-2-(3,4,5-trimethoxy-phenyl)-furo[3,2-b]pyridine] | < 0.3 | –
CN1CCN(c2cc(-c3cc4nccc(-c5ccnc(N6CCN(C)CC6)c5)c4o3)ccn2)CC1 [Compound C96] | 3 to 50 | –
Cn1cc(-c2ccnc3cc(-c4ccc5cn[nH]c5c4)oc23)cn1 [Compound C133] | < 0.3 | –
COc1cc(-c2cc3nccc(-c4csc(N(C)C)n4)c3o2)cc(OC)c1OC [Compound C79] | 0.3 to 3 | –
Cn1cc(-c2ccnc3cc(-c4ccc(OCC(O)CN5CCCCC5)cc4)oc23)cn1 (stereo not shown) [Compound C38] | 0.3 to 3 | –
COc1cc(-c2cc3nccc(-c4ccc[nH]4)c3o2)cc(OC)c1OC [Compound C105] | 0.3 to 3 | –
c1cc(-c2ccc3c(c2)OCCO3)c2oc(-c3ccc4c(c3)OCCO4)cc2n1 [Compound B37, 2,7-Bis-(2,3-dihydro-benzo[1,4]dioxin-6-yl)-furo[3,2-b]pyridine] | 3 to 50 | –
COc1cc(-c2cc3nccc(-c4ccc(OC5CCOCC5)nc4)c3o2)cc(OC)c1OC [Compound C28] | 0.3 to 3 | –
COc1cc(-c2cc3nccc(NCc4cccnc4N(C)S(C)(=O)=O)c3o2)cc(OC)c1OC [Compound B7, N-Methyl-N-(3-{[2-(3,4,5-trimethoxy-phenyl)-furo[3,2-b]pyridin-7-ylamino]-methyl}-pyridin-2-yl)-methanesulfonamide] | 3 to 50 | –
